molecular target: human 5-HT2C receptor (Homo sapiens, UniProt P28335, I156V/I160V/N158S); experiment: cell-based
Sequence (P28335 33-458 I156V/N158S/I160V limits assumed): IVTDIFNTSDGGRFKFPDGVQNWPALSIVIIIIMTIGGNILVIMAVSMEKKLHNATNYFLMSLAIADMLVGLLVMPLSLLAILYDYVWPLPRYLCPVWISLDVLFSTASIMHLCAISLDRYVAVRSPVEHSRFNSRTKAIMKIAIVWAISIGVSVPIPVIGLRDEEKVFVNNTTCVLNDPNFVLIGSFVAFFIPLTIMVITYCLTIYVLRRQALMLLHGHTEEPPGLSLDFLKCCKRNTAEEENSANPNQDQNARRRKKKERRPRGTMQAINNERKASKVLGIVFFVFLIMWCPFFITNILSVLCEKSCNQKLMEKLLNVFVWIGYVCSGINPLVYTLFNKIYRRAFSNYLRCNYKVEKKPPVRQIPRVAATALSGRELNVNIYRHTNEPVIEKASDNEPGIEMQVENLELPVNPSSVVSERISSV

| SMILES | EC50 |
| --- | --- |
| O=C(C1CN(c2c3c(nc4ccnn24)CCNCC3)C1)N1CC=CC1 [Example 31.183] | 0.308 µM |
| CC1(C)CCN(C(=O)C2CN(c3c4c(nc5c(Br)cnn35)CCNCC4)C2)C1 [Example 31.135] | 0.046 µM |
| CC(=O)N(C)C1CCN(C(=O)C2CN(c3c4c(nc5ccnn35)CCNCC4)C2)CC1 [Example 37.30] | 0.008 µM |
| O=C(C1CCCCC1)N1CCN(C(=O)C2CN(c3c4c(nc5ccnn35)CCNCC4)C2)CC1 [Example 37.101] | 0.07 µM |
| CN(Cc1ccc2ccccc2c1)C(=O)C1CN(c2c3c(nc4ccnn24)CCNCC3)C1 [Example 31.169] | 0.033 µM |
| COc1ccc(OCC2CN(c3c4c(nc5ccnn35)CCNCC4)C2)c(Cl)c1 [Example 15.16] | 0.003 µM |
| O=C(NC1(c2ccccc2)CC1)C1CN(c2c3c(nc4ccnn24)CCNCC3)C1 [Example 31.92] | 0.921 µM |
| O=C(C1CN(c2c3c(nc4ccnn24)CCNCC3)C1)N1CCC2(CCCCC2)C1 [Example 31.48] | 0.038 µM |
| CCC(CC)CNC(=O)C1CN(c2c3c(nc4ccnn24)CCNCC3)C1 [Example 37.88] | 0.036 µM |
| c1cncc(Cn2c(C3CN(c4c5c(nc6ccnn46)CCNCC5)C3)nc3ccccc32)c1 [Example 34.27] | 0.046 µM |
| O=C(C1CN(c2c3c(nc4ccnn24)CCNCC3)C1)N1CCCCCC1 [Example 31.142] | 0.186 µM |
| O=C(C1CN(c2c3c(nc4ccnn24)CCNCC3)C1)N1CC2CC2(c2cccs2)C1 (stereo not shown) [Example 31.231] | 0.027 µM |
| CC1CCCN1c1c2c(nc3ccnn13)CCNCC2 (stereo not shown) [Example 1.13] | 2.3 µM |
| CC1(C)CN(C(=O)C2CN(c3c4c(nc5ccnn35)CCNCC4)C2)Cc2ccccc21 [Example 31.177] | 0.623 µM |
| COc1ccc(OCC2CN(c3c4c(nc5ccnn35)CCNCC4)C2)cc1 [Example 15.3] | 0.01 µM |
| c1ccc2sc(C3CN(c4c5c(nc6ccnn46)CCNCC5)C3)nc2c1 [Example 12, 10-(3-Benzothiazol-2-yl-azetidin-1-yl)-6,7,8,9-tetrahydro-5H-1,4,7,10a-tetraaza-cyclohepta[f]indene] | 0.253 µM |
| O=C(C1CN(c2c3c(nc4ccnn24)CCNCC3)C1)N1CCN(c2ccccc2)CC1 [Example 37.34] | 0.006 µM |
| O=C(CC1CN(c2c3c(nc4ccnn24)CCNCC3)C1)N1CCc2cc(F)ccc21 [Example 33.2] | 0.02 µM |
| CN(Cc1ccc(Br)cc1)C(=O)C1CN(c2c3c(nc4ccnn24)CCNCC3)C1 [Example 31.80] | 0.03 µM |
| Cc1ccc(F)c(OCC2CN(c3c4c(nc5ccnn35)CCNCC4)C2)c1 [Example 15.5] | 0.007 µM |

| SMILES | EC50 |
| --- | --- |
| Cc1cnn2c(N3CCCCC3)c3c(nc12)CCNCC3 [Example 27.1] | 0.037 µM |
| CC(C)CC(=O)N1CCN(C(=O)C2CN(c3c4c(nc5ccnn35)CCNCC4)C2)CC1 [Example 37.57] | 0.027 µM |
| c1ccc2cc(OC3CN(c4c5c(nc6ccnn46)CCNCC5)C3)ccc2c1 [Example 35.46] | 0.495 µM |
| O=C(C1CN(c2c3c(nc4ccnn24)CCNCC3)C1)N1CC[C@H](Oc2ccccc2)C1 [Example 31.212] | 0.034 µM |
| CC(C)CC(C)NC(=O)C1CN(c2c3c(nc4ccnn24)CCNCC3)C1 (stereo not shown) [Example 37.99] | 0.092 µM |
| CN(C)C1CN(C(=O)C2CN(c3c4c(nc5ccnn35)CCNCC4)C2)C1 [Example 37.33] | 0.007 µM |
| Cc1cnn2c(N3CC(C(=O)N4CCc5ccc(C(F)(F)F)cc54)C3)c3c(nc12)CCNCC3 [Example 31.246] | 0.266 µM |
| CC1CN(C(=O)C2CN(c3c4c(nc5ccnn35)CCNCC4)C2)CC(C)N1 (stereo not shown) [Example 37.13] | 0.001 µM |
| Fc1cc(F)c2nc(C3CN(c4c5c(nc6ccnn46)CCNCC5)C3)[nH]c2c1 [Example 34.24] | 0.136 µM |
| CN1CC(NC(=O)C2CN(c3c4c(nc5ccnn35)CCNCC4)C2)C1 [Example 37.64] | 0.004 µM |
| O=C(C1CN(c2c3c(nc4ccnn24)CCNCC3)C1)N1CCC2(CCOC2)CC1 [Example 31.57] | 0.037 µM |
| CN(Cc1ccc(C#N)cc1)C(=O)C1CN(c2c3c(nc4c(Br)cnn24)CCNCC3)C1 [Example 31.139] | 0.016 µM |
| O=C(C1CN(c2c3c(nc4ccnn24)CCNCC3)C1)N1CCCC2(CCc3ccccc32)C1 (stereo not shown) [Example 31.173] | 0.44 µM |
| N#CC1CCN(C(=O)C2CN(c3c4c(nc5ccnn35)CCNCC4)C2)C1 (stereo not shown) [Example 31.159] | 0.032 µM |
| Brc1cnn2c(N3CC(Oc4ccccc4)C3)c3c(nc12)CCNCC3 [Example 2.1] | 0.007 µM |
| CCOc1cccc(OC2CN(c3c4c(nc5ccnn35)CCNCC4)C2)c1 [Example 35.27] | 0.093 µM |
| CN(CC1CC1)C(=O)C1CN(c2c3c(nc4ccnn24)CCNCC3)C1 [Example 31.97] | 0.156 µM |
| CN(C(=O)C1CN(c2c3c(nc4ccnn24)CCNCC3)C1)C1CCCCC1 [Example 31.179] | 1.69 µM |
| O=C(C1CN(c2c3c(nc4ccnn24)CCNCC3)C1)N1CCC2(CC1)Oc1ccccc1O2 [Example 31.186] | 0.068 µM |
| OC1CCCN(c2c3c(nc4ccnn24)CCNCC3)C1 (stereo not shown) [Example 1.38] | 1.81 µM |
